Data: patent US12637717B2, “Method for treating and predicting prognosis of gastric cancer patient by calculating RNA expression with logistic regression” (National Yang Ming Chiao Tung University, priority 2022, dated 2026)

Tests used:
Assay type in all cases: cell-based, human
Hs746T = test: cell viability of diffuse-type GC cell line Hs746T after inhibitor treatment; settings: 2.5 μM, 5 μM and 10 μM, triplicate
Excerpt: (§1) The potential tumor antigens (pTAs) expression and signaling pathways were validated in vitro. To validate the association of pTAs with the EMT-like subtype of gastric cancer, the pTAs expression at intestinal-type and diffuse-type GC cell lines were investigated by western blotting. The human GC cell line AGS was obtained from American Type Culture Collection (ATCC) CRL-1739™, and Hs746T was obtained from ATCC HTB-135™, and SNU-1 was obtained from ATCC CRL5971™. Hs746T and SNU-1 were diffuse-type GC cell lines; AGS was an intestinal type GC cell line.
(§2) Therefore, two inhibitors (SB431542 and GDC-0449 (Vismodegib)) were used to validate whether the TGF-β and hedgehog signaling pathways were activated in diffuse-type GC cell lines, respectively. The experiments were performed in triplicate.

SNU-1 = test: cell viability of diffuse-type GC cell line SNU-1 after inhibitor treatment; settings: 2.5 μM, 5 μM and 10 μM, triplicate
Excerpt: as §1, §2

AGS = test: cell viability of intestinal type GC cell line AGS after inhibitor treatment; settings: for cell viability (inhibiting effect): 2.5 μM, 5 μM and 10 μM, triplicate
Excerpt: as §1, §2

Row | SMILES | cell viability (Hs746T) | cell viability (SNU-1) | cell viability (inhibiting effect) (AGS) | effect on proliferation (AGS; concentrations of 2.5 μM and 5 μM)
1 | CS(=O)(=O)c1ccc(C(=O)Nc2ccc(Cl)c(-c3ccccn3)c2)c(Cl)c1 [GDC-0449, Vismodegib] | significantly decreased | significantly decreased | did not have significant effects of inhibiting | effects of promoting proliferation
2 | NC(=O)c1ccc(-c2nc(-c3ccc4c(c3)OCO4)c(-c3ccccn3)[nH]2)cc1 [SB431542] | significantly decreased | significantly decreased | did not have significant effects of inhibiting | 
